Data reported in PubChem BioAssay (NCI).
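In this assay, cells in 96-well plates receive the compound at five concentrations for 48 hours. Endpoints are linearly interpolated between the surrounding concentrations. GI50: concentration for 50% inhibition of growth. TGI is the concentration that stops growth completely.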

Legend:
Assay in all cases: NCI anticancer screen, dose series, 48 h
K-562 leukemia = tested on: K-562 leukemia
HOP-92 NSCLC = tested on: HOP-92 NSCLC
NCI-H460 lung = tested on: NCI-H460 lung
DU-145 prostate = tested on: DU-145 prostate
CAKI-1 renal = tested on: CAKI-1 renal
KM12 colon = tested on: KM12 colon
MOLT-4 leukemia = tested on: MOLT-4 leukemia
UACC-257 melanoma = tested on: UACC-257 melanoma
RPMI-8226 leukemia = tested on: RPMI-8226 leukemia
TK-10 renal = tested on: TK-10 renal

SMILES | GI50 (K-562 leukemia) | TGI (K-562 leukemia) | GI50 (HOP-92 NSCLC) | TGI (HOP-92 NSCLC) | GI50 (NCI-H460 lung) | TGI (NCI-H460 lung) | GI50 (DU-145 prostate) | TGI (DU-145 prostate) | GI50 (CAKI-1 renal) | TGI (CAKI-1 renal) | GI50 (KM12 colon) | TGI (KM12 colon) | GI50 (MOLT-4 leukemia) | TGI (MOLT-4 leukemia) | GI50 (UACC-257 melanoma) | TGI (UACC-257 melanoma) | GI50 (RPMI-8226 leukemia) | TGI (RPMI-8226 leukemia) | GI50 (TK-10 renal) | TGI (TK-10 renal)
Cc1cc(S(=O)(=O)N/N=C(\Sc2cc(Cl)c(C)cc2S(N)(=O)=O)c2ccc(Cl)cc2)c(Cl)cc1Cl | 67.7 µM | > 100 µM | 47.6 µM | > 100 µM | > 100 µM | > 100 µM | > 100 µM | > 100 µM | 61.8 µM | > 100 µM | > 100 µM | > 100 µM | 48.3 µM | > 100 µM | 44.5 µM | > 100 µM | 27.3 µM | 86.4 µM | > 100 µM | > 100 µM
COc1ccc2[nH]c3c4c(ccc3c2c1)C(=O)C=CC4=O |  | 3.97 µM |  | 7.64 µM |  | 54.1 µM |  | > 100 µM |  | 14.4 µM |  | 49.1 µM |  | 3.1 µM |  | 27.7 µM |  | 10.4 µM |  | 28.1 µM
C=CCSS/C=C/CS(=O)CC=C (centres undefined) |  | > 77.9 µM |  | > 100 µM |  | > 100 µM |  | > 100 µM |  | > 62.7 µM |  | > 100 µM |  | > 29.5 µM |  | > 100 µM |  | 48.8 µM |  | > 100 µM
O=C(CSC(c1ccccc1)c1ccccc1)N/N=C/c1ccc(Cl)cc1Cl | 19 µM | 96.6 µM | 31.1 µM | 83.4 µM | 20.1 µM | 49.8 µM | 32.9 µM | 93.5 µM | 38.3 µM | 83 µM | 16.6 µM | 38.9 µM | 19.6 µM | 68.1 µM | 23.1 µM | 68.3 µM | 15.6 µM | 41.8 µM | 26 µM | 72 µM
CC(C)OC(=O)NNc1cc(Cl)ccc1Cl |  | > 100 µM |  | > 100 µM |  | > 100 µM |  | > 100 µM |  | > 100 µM |  | > 100 µM |  | > 100 µM |  | > 100 µM |  | > 100 µM |  | > 100 µM
NC(CS/C(Cl)=C/Cl)C(=O)O (centres undefined) | 33.4 µM | > 100 µM | 33.2 µM | > 100 µM | 0.427 µM | 2 µM | 16.5 µM | > 100 µM | 72.5 µM | > 100 µM | 67.3 µM | > 100 µM | 41.9 µM | > 100 µM | 23.3 µM | 78.8 µM | 12.5 µM | 74.5 µM | > 100 µM | > 100 µM
O=C(/C=C/c1cc(CN2CCOCC2)c(O)c2ncccc12)c1cc(CN2CCOCC2)c(O)c2ncccc12 | < 0.0114 µM | > 100 µM | 0.0292 µM | 0.525 µM | < 0.0169 µM | > 55.9 µM | < 0.0219 µM | > 100 µM | 0.0842 µM | > 100 µM | 0.0437 µM | > 100 µM | 0.0529 µM | > 100 µM | 0.202 µM | 8.88 µM | 0.0222 µM | > 100 µM | 0.0318 µM | > 100 µM
CC(C)S(=O)(=O)c1ccccc1Nc1nc(Nc2cccc(NC(=O)CN)c2)ncc1Cl | 0.198 µM | 2.55 µM | 0.102 µM | 1.55 µM | 0.0306 µM | 1.64 µM | 0.406 µM | 6.51 µM | 0.2 µM | 7.25 µM | 0.0331 µM | 2.45 µM | 0.231 µM | 2.14 µM | 0.997 µM | 6.73 µM | 0.254 µM | 2.41 µM | 0.362 µM | 7.86 µM
COc1cc2ncn(-c3cc(OCCc4ccccc4)c(C(N)=O)s3)c2cc1OC | > 25 µM | > 25 µM | 19.6 µM | > 25 µM | > 25 µM | > 25 µM | > 23.2 µM | > 25 µM | > 25 µM | > 25 µM | 18.9 µM | > 25 µM | 12.4 µM | > 25 µM | > 25 µM | > 25 µM | > 25 µM | > 25 µM | > 17.2 µM | > 25 µM
Cc1c(C2=C(Br)C(=O)N(C)C2=O)c(=O)n(C)c(=O)n1C |  | 59.7 µM |  | 34.4 µM |  | > 100 µM |  | 80.9 µM |  | 34.8 µM |  | > 100 µM |  | 55.1 µM |  | 32 µM |  | 46.3 µM |  | 31.8 µM
COc1ccc(C(=O)COc2cccc(/C=C3\Oc4ccc5ccccc5c4C3=O)c2)cc1 | 1.53 µM | 3.73 µM | 0.0932 µM | 25.6 µM | 20.6 µM | 52.6 µM | 4.19 µM | 16 µM | 10.7 µM | 23.5 µM | 3.39 µM | 14.6 µM | 2.85 µM | 21.6 µM | 14.5 µM | 32.4 µM | 0.345 µM | 2.01 µM | 12 µM | 24.7 µM
CC(=O)O[C@H](C[C@H](C(C)C)N(C)C(=O)[C@@H](NC(=O)[C@H]1CCCCN1C)C(C)C)c1nc(C(=O)N[C@@H](Cc2ccccc2)C[C@H](C)C(=O)O)c(CCOCc2ccccc2)s1 | < 0.001 µM | > 10 µM | < 0.001 µM | > 10 µM | < 0.001 µM | > 10 µM | < 0.001 µM | 0.00119 µM | < 0.001 µM | > 10 µM | < 0.001 µM |  | < 0.001 µM | > 10 µM | < 0.001 µM | > 10 µM | < 0.001 µM | > 10 µM | 0.108 µM | > 10 µM
N#CC(=NCCO)C1=C(O)c2ccccc2C1=O |  | > 100 µM |  | > 100 µM |  | > 100 µM |  | > 100 µM |  | > 100 µM |  | > 100 µM |  | > 100 µM |  | > 100 µM |  | > 100 µM |  | > 100 µM
